Experimental data as given in US20100120703A1, “COMPOSITIONS AND METHODS FOR TREATING CANCER” (priority 2007, published 2010).

Tests used:
Sprague Dawley (SD) rats = experiment: DEN/CCl4-induced hepatoma in rats, promotion stage: liver observation and weight; format: in vivo, rat; conditions: 15 mg/kg oral daily for 28 weeks
Procedure: Sprague Dawley (SD) rats were used as the animal model in the in vivo experiments. Male SD rats (80-90 g body weight) were obtained from Laboratory Animal Services Center of The Chinese University of Hong Kong. The rats were housed in the rodent animal room with a 12 hour light-dark cycle and constant temperature of 25° C. Four rats were housed in each case. Food and water were given ad libitum. All the animals were observed and weighed daily.
The experiments were to induce hepatomas in rats. SIN was administered to the rats of treatment group at different stages. Chemical carcinogens were employed in the design of experiment to be able to induce hepatoma within a short time (Ha W. S. et al., 2001). Diethylnitrosamine (DEN) has been frequently used by other scientists to induce hepatoma. DEN administration in combined with CCl4 method was employed in the experiment to induce hepatoma in rats according to the established protocol (Kovalszky, I. et al., 1992).
Experiments of the promotion stage were to study the effect of SIN at the promotion stage of cancer development. Fifteen rats were randomly divided into 3 groups, a negative control group (5 rats), a positive control group (5 rats) and an SIN-treatment group (5 rats). […]
During the experiment, the body weight of the rat was monitored daily. […]

[1] = system: p53, Mdm2, p21, PCNA, Bax and Bcl-2; experiment: Gene expression assay (RT-PCR, Western blot) in rat liver, promotion stage; format: in vivo
Procedure: Expression patterns, at both mRNA and protein levels, of selected genes related to apoptosis and tumors were examined to investigate the mechanism by which sinigrin prevent tumor occurrence.
RNA was extracted from 300 μg of rat liver and was measured as described in foregoing examples Three micrograms of total RNA, 1 μl of an oligo dT primer and certain volume of RNase-Free H2O were mixed into a total volume of 12 μl. The mixture was incubated at 70° C. for 10 minutes and immediately chilled on ice. Four microliters of 5× First Stand Buffer, 2 μl of 0.1M DTT, 1 μl of 10 mM dNTP mix, and 1 μl of SuperScript II were added to each tube and mixed. The tubes were incubated at 42° C. for 50 minutes followed by 70° C. for 15 minutes before chilling on ice. The cDNA was then ready for PCR amplification.
The PCR reactions were performed in a final volume of 20 μl in a Gene Amp® PCR system. The PCR reaction mix contained 1 μl of cDNA synthesized previously, 2 μl 10×PCR Buffer, 0.4 μl 10 mM dNTP mix, 1.2 μl 25 mM MgCl2, 1 μl 10 mM primer mix, 0.2 μl recombinant Taq polymerase, and 14.2 μl autoclaved ddH2O.
For synthesis of β-actin gene as the internal control and Mdm2 gene, the PCR mixture was incubated at 94° C. for 5 minutes followed by 30 cycles of amplification. Each cycle consisted of 45 seconds of denaturation at 94° C., 45 seconds of annealing at 55° C. and 30 seconds of extension at 72° C. After all cycles were completed, a final extension step at 72° C. for 10 minutes was performed. The PCR products were ready for gel electrophoresis.
For synthesis of p53, the number of cycle was enhanced to 35, the annealing temperature was enhanced to 58° C., and the extension time was extended to 1.5 minutes, respectively.
The intensity of the PCR products was analyzed by the software Image J. The band intensity of the β-actin gene was measured as an internal control. The ratio of the band intensities of the target gene to the β-actin gene was used to compare the mRNA level of each gene between different treatment groups.
Three hundred micrograms of each liver sample were homogenized in the Solution C at 1 g/ml using a glass homogenizer on ice. The homogenate was transferred to a microcentrifuge tube and centrifuged at 13,000 rpm for 20 minutes. The supernatant was collected and equal volume of 2× sample loading dye was added to each sample. The samples were stored at −20° C. The protein was used for immunodetection of the expression level of Bax, Bcl-2, PCNA and p21.
Three hundreds micrograms of each liver sample were homogenized in Solution A at 1 g/ml using the glass homogenizer on ice. The homogenate was transferred into a microcentrifuge tube and centrifuged at 3,000 rpm for 5 minutes to spin down the unbroken tissue. The supernatant was collected and incubated on ice for 5 minutes and then centrifuged at 5,000 rpm for 5 minutes. The supernatant was discarded and the pellet was lysed by 100 μl Solution B. The lysing process lasted for 20 minutes on ice. After incubation, the solution was centrifuged at 12,000 rpm for 15 seconds to spin down the cell debris. The supernatant was collected and equal volume of 2× sample loading dye was added to each sample. The samples were ready for immunodetection of the expression level of p53 and mdm2.
The Mini-PROTEAN II electrophoresis cell (Bio-Rad) was used for sodium dodecyl sulfate poly acrylamide gel electrophoreses (SDS-PAGE). The gel mold was assembled according to the protocol. About 3 ml water was poured into the set mold to test for leakage. After discarding the water, resolving gel solution was prepared according to the established protocol. A 10% acrylamide gel was used for the separation. The resolving gel was poured into the mold at a proper volume (about ⅔ full). After the gel solution was poured into the mold, a thin layer of distilled water was poured on the gel solution to ensure the surface of the gel was smooth. The gel was allowed to polymerize for 30 minutes. […]

[2] = system: rats previously treated with dimethylhydrazine (DMH); conditions: cited from earlier work
human colon cancer cells = conditions: cited from earlier work

## C=CC/C(=N/OS(=O)(=O)[O-])S[C@@H]1OC(CO)[C@@H](O)C(O)C1O.[K+] (some centres unmarked) [SIN, sinigrin]
Sprague Dawley (SD) rats
  percentage of liver weight and liver weight index vs negative group: only slightly higher
  visible tumors on liver (direct observation): no visible tumor
[1]; RT-PCR
  Mdm2 mRNA expression: decreased back to levels near the negative control
  p53 mRNA expression: decreased back to levels near the negative control
[1]; Western blot
  Bax protein expression (decreased in positive group): reversed
  Bcl-2 protein expression (increased in positive group): reversed
  Mdm2 protein expression (increase in positive control): partially reversed
  PCNA protein expression (increased in positive group): reversed
  p21 protein expression: much higher than that of the negative control and the positive control
  total p53 protein level: significantly increased
  wild type p53 protein level: restored its expression to a level even higher than the negative control
[2]; DMH treated rats
  apoptosis in colonic tissue vs DMH only: higher level of apoptosis
[2]; sinigrin administered after DMH
  aberrant crypt foci in colonic tissue: suppresses induction of aberrant crypt foci
Human colon cancer cells
  action on apoptosis and cell proliferation: might be apoptosis- and cell proliferation-independent
